Literature values as cited in article PMC7395068, “The evolution of strategies to minimise the risk of human drug-induced liver injury (DILI) in drug discovery and development” (Archives of Toxicology, 2020).
Like-named read-outs stand apart in the source and are kept apart here.

Experiments:
[1] = test system: isolated mouse liver mitochondria; conditions: cited from earlier work
[2] = test system: THLE or HepG2 cells, isolated mitochondria, BSEP; conditions: cited from earlier work
[3] = cited from earlier work
[4] = cited from earlier work; remark: listed apart in the source
HepG2 cells = conditions: cited from earlier work
human hepatocytes = conditions: cited from earlier work
[5] = test system: primary human hepatocytes, NIH3T3 fibroblasts, BSEP, CYP3A4; conditions: cited from earlier work
[6] = In vitro Assay, ref Porceddu 2012
[7] = In vitro Assay, ref O'Brien 2006
[8] = assignment in O'Brien 2006, ref O'Brien 2006

## CC[C@H](C)C(=O)O[C@H]1C[C@H](O)C=C2C=C[C@H](C)[C@H](CC[C@@H](O)C[C@@H](O)CC(=O)O)[C@H]21 [pravastatin]
[1]; [6]
  in vitro data EC2<=1x Cmax: -VE
  in vitro data EC20<=2uM: -VE
[2]; In vitro Assay, ref Aleo 2019
  Partition Hybrid HRM Score: +VE
  Ro2 Hybrid HRM Score: -VE
[3]; ref Chen 2016
  DILI +VE (5-8), DILI -VE (-4): +VE
  DILI severity category: vLess-DILI-Concern
[4]; […]
  In vivo DILI: -VE
[4]; ref Aleo 2019
  In vivo DILI: +VE
[4]; ref O'Brien 2006
  In vivo DILI: +VE
[4]; ref Porceddu 2012
  In vivo DILI: +VE
HepG2 cells; [7]
  Structural based (HCI): -VE

## CCc1nc(N)nc(N)c1-c1ccc(Cl)cc1 [pyrimethamine]
Human hepatocytes; In vitro Assay, ref Xu 2008
  Structural based (HCI): +VE
[5]
  Cellular toxicity (3T3 cells): -VE
  Combined Assay: -VE
  GSH adduct HML: -VE
  Hepatocyte cellular toxicity: -VE
  MitoTox 3T3: -VE
  TDI CYP3A4: -VE
  hBSEP inhibition: -VE
[3]; ref Chen 2016
  DILI +VE (5-8), DILI -VE (-4): +VE
  DILI severity category: vLess-DILI-Concern
[4]; ref O'Brien 2006
  In vivo DILI: +VE
[4]; ref Schadt 2015
  In vivo DILI: -VE
[4]; ref Xu 2008
  In vivo DILI: +VE
HepG2 cells; [7]
  Structural based (HCI): +VE

## [Cl-].[Na+] [sodium chloride]
[4]; in vivo
  In vivo DILI: -VE
HepG2 cells
  Structural based (HCI), In vitro Assay: +VE

## CN(N=O)C(=O)N[C@@H](C=O)[C@@H](O)[C@H](O)[C@H](O)CO [streptozocin]
[3]; ref Chen 2016
  DILI +VE (5-8), DILI -VE (-4): -VE
  DILI severity category: Ambiguous DILI-concern
[4]; ref O'Brien 2006
  In vivo DILI: -VE
HepG2 cells; [7]
  Structural based (HCI): -VE

## Nc1ccc(S(=O)(=O)NC(=O)c2ccccc2)cc1 [sulfabenzamide]
[4]; [8]
  In vivo DILI: -VE
HepG2 cells; HepG2 HCI, ref O'Brien 2006
  Structural based (HCI), In vitro Assay: -VE

## Nc1ccc(S(=O)(=O)Nc2ccnn2-c2ccccc2)cc1 [sulfaphenazole]
[4]; […]
  In vivo DILI: -VE
[4]; ref O'Brien 2006
  In vivo DILI: +VE
HepG2 cells; [7]
  Structural based (HCI): +VE (lowest HCI endpoint IC50 (or in the absence of dose–response < 100 µM) < 30 × total human plasma exposure levels (Cmax.tot))

## Cc1scc2c1N(C(=O)CN1CCN(C)CC1)c1ccccc1NC2=O [telenzipine]
[4]; [8]
  In vivo DILI: -VE
HepG2 cells; HepG2 HCI, ref O'Brien 2006
  Structural based (HCI), In vitro Assay: -VE

## Cc1ccc(S(=O)(=O)NC(=O)NN2CCCCCC2)cc1 [tolazamide]
[3]; ref Chen 2016
  DILI +VE (5-8), DILI -VE (-4): +VE
  DILI severity category: vLess-DILI-Concern
[4]; ref O'Brien 2006
  In vivo DILI: +VE
HepG2 cells; [7]
  Structural based (HCI): +VE (lowest HCI endpoint IC50 (or in the absence of dose–response < 100 µM) < 30 × total human plasma exposure levels (Cmax.tot))

## CC[C@]12CCCN3CCc4c(n(c5ccccc45)[C@@](O)(C(=O)OC)C1)[C@@H]32 [vincamine]
[4]; [8]
  In vivo DILI: -VE
HepG2 cells; HepG2 HCI, ref O'Brien 2006
  Structural based (HCI), In vitro Assay: +VE

## COc1cc(C(=O)NS(=O)(=O)c2ccccc2C)ccc1Cc1cn(C)c2ccc(NC(=O)OC3CCCC3)cc12 [zafirlukast]
Human hepatocytes; In vitro Assay, ref Xu 2008
  Structural based (HCI): -VE
[2]; In vitro Assay, ref Aleo 2019
  Partition Hybrid HRM Score: +VE
  Ro2 Hybrid HRM Score: +VE
[3]; ref Chen 2016
  DILI +VE (5-8), DILI -VE (-4): +VE
  DILI severity category: vMost-DILI-Concern
[4]; […]
  In vivo DILI: +VE
[4]; ref Aleo 2019
  In vivo DILI: +VE
[4]; ref O'Brien 2006
  In vivo DILI: +VE
[4]; ref Xu 2008
  In vivo DILI: +VE
HepG2 cells; [7]
  Structural based (HCI): +VE

## Nc1ccn([C@H]2CC[C@@H](CO)O2)c(=O)n1 [zalcitabine]
Human hepatocytes; In vitro Assay, ref Xu 2008
  Structural based (HCI): -VE
[2]; In vitro Assay, ref Aleo 2019
  Partition Hybrid HRM Score: -VE
  Ro2 Hybrid HRM Score: -VE
[4]; ref Aleo 2019
  In vivo DILI: +VE
[4]; ref O'Brien 2006
  In vivo DILI: -VE
[4]; ref Xu 2008
  In vivo DILI: -VE
HepG2 cells; [7]
  Structural based (HCI): -VE

## Cc1cn([C@H]2C[C@H](N=[N+]=[N-])[C@@H](CO)O2)c(=O)[nH]c1=O [zidovudine]
Human hepatocytes
  Structural based (HCI): -VE
[1]; [6]
  in vitro data EC2<=1x Cmax: +VE
[1]
  in vitro data EC20<=2uM: -VE
[2]
  Partition Hybrid HRM Score: -VE
  Ro2 Hybrid HRM Score: -VE
[3]; in vivo
  DILI severity category: vMost-DILI-Concern
HepG2 cells
  Structural based (HCI): +VE

## NS(=O)(=O)Cc1noc2ccccc12 [zonisamide]
[3]; ref Chen 2016
  DILI +VE (5-8), DILI -VE (-4): +VE
  DILI severity category: vLess-DILI-Concern
[4]; ref O'Brien 2006
  In vivo DILI: -VE
HepG2 cells; [7]
  Structural based (HCI): +VE (lowest HCI endpoint IC50 (or in the absence of dose–response < 100 µM) < 30 × total human plasma exposure levels (Cmax.tot))

## cyanocobalamin
Human hepatocytes; In vitro Assay, ref Xu 2008
  Structural based (HCI): -VE
[2]; In vitro Assay, ref Aleo 2019
  Partition Hybrid HRM Score: -VE
  Ro2 Hybrid HRM Score: -VE
[3]; in vivo
  DILI +VE (5-8), DILI -VE (-4): -VE
  DILI severity category: vNo-DILI-Concern
[4]; ref Aleo 2019
  In vivo DILI: -VE
[4]; ref O'Brien 2006
  In vivo DILI: -VE
[4]; ref Xu 2008
  In vivo DILI: -VE
HepG2 cells; [7]
  Structural based (HCI): -VE
